# Data taken from patent US11141397B2, “Composition for improving efficacy of L-DOPA treatment” (priority 2017, dated 2021).
# “Also recorded” adds a separate entry of the source.
# Test system: intrastriatal rotenone mouse model for PD
# Experiment: Rotarod test (motor function) in the intrastriatal rotenone model
# Format: in vivo, C57BL/6J mice
# Description: Forty-eight seven week-old C57BL/6J mice (Charles River, The Netherlands) were housed at room temperature under a 12 h light/dark cycle. Food and water were provided ad libitum. […] Mice underwent stereotaxic surgery under isoflurane anesthesia: a hole was drilled in the skull and a cannula inserted in the right striatum at the following stereotaxic coordinates: AP +0.4, ML -2.0 from bregma, and DV -3.3 below dura. Rotenone-treated animals were injected with 5.4 μg of freshly prepared rotenone solution (dissolved in 2 μl DMSO). Sham-treated animals were injected with the vehicle (2 μl DMSO). 93 days after surgery the mice were euthanized by decapitation. The motor performance of each mouse was assessed in the Rotarod test as described in Inden et al. “Neurodegeneration of mouse nigrostriatal dopaminergic system induced by repeated oral administration of rotenone is prevented by 4-phenylbutyrate, a chemical chaperone” J. […] Briefly, mice were placed on an accelerating rod with speeds starting with 2 rpm and gradually increasing to 20 rpm. Time to first fall was recorded for a maximum of 300 s. […] Animals were divided into four groups of 12 animals (Sham+CD, Sham+AD, Rotenone+CD, and Rotenone+AD). […] The AD also contained supplementary amounts of choline, phospholipids, selenium, folic acid, and vitamins B6, B12, C, D, and E, above standard levels in the control diet. […] The rotarod test was started 1.5h after benserazide administration and performed as described below. […] ANOVAs were followed by a Tukey's multiple comparison test when appropriate. For the rotarod test performance over time, data were analyzed with a general linear model repeated measure ANOVA with the within subject factor time and the between subject factors surgery and diet. […] Analyses were performed using SPSS 22.0.
smiles,measurement,setting,value
"N[C@@H](Cc1ccc(O)c(O)c1)C(=O)O [levodopa, L-3,4-di-hydroxy-phenylalanine]",rotarod performance (time on rotarod),"days 26 and 27 after surgery, 60 minutes after 20 mg/kg oral levodopa vs vehicle, before dietary intervention, F(1,92)=24.77, p<0.0001",overall effect of levodopa on the animals' motor performances
same,effect on rotenone-induced motor dysfunction (rotarod),"overall effect, day 65-93, FIG. 1, three-way ANOVA",there was an effect; also recorded: alleviated rotenone-induced motor dysfunction
same,ability to remain on the rod,"rotenone-injected mice on AD, levodopa 10 or 20 mg/kg vs saline or 5 mg/kg, day 65-93, p<0.001",better ability to remain on the rod
same,rotarod performance,"rotenone-treated animals on CD, levodopa 20 mg/kg vs 5 mg/kg or saline, day 65-93, p<0.01",performed significantly better
